Tested on: CHO-S cells
Assay: Viable cell count of CHO-S cells after 24 hours incubation (anticancer activity)
Type: cell-based, hamster
Experimental: The two compounds, by means of a standard assay, were tested on mammalian (hamster) cancer cells to evaluate possible anticancer activity.
Compound (IIB) was used at concentrations of 25 μM and 50 μM, while Peny compound was tested at concentrations up to 400 μM.
Mammalian cancer cells were then incubated for 24 hours.
Precisely, CHO-S cells were cultured in 2 mL of DMEM (Dulbecco's Modified Eagle Medium) (10% FBS, 6% Glutamax) in a 24-well plate at a density of 200×10^3 cells/per well and subsequently incubated at 37° C. in a controlled atmosphere (5% CO2) under shaking. The following day, cells were counted by means of the Countess II instrument (Thermofisher Scientific) (an automated cell counter). They were then treated with Purymycin (positive control), Peny, (IIB) compounds, and in the absence of any product (negative control), at the concentrations shown in FIG. 37.
Cell counts were performed after 24 hours to determine the number of viable cells.

| SMILES | cytotoxicity at 50 µM (50 μM, read-out: reduction of viable cells) [%] | anticancer effect (tested at concentrations up to 400 μM) |
| --- | --- | --- |
| CC(=O)OC[C@H]1O[C@@H](OCc2cn(CCCNC(=O)[C@@H]3N4C(=O)N[C@H](C(=O)O)[C@H]4SC3(C)C)nn2)[C@H](OC(C)=O)[C@@H](OC(C)=O)[C@@H]1OC(C)=O [Compound (IIB), (3S, 7R, 7aR)-2,2-dimethyl-5-oxo-3-((3-(4-((((2R, 3R, 4S, 5R, 6R)-3,4,5-triacetoxy-6-(acetoxymethyl)tetrahydro-2H-pyran-2-yl)oxy)methyl)-1H-1,2,3-triazol-1-yl)propyl)carbamoyl)hexahydroimidazo[5,1-b]thiazole-7-carboxylic acid] | ~50 |  |
| CC(=O)OC[C@@H]1OC(n2cc(COC(=O)[C@@H]3N4C(=O)[C@@H](NC(=O)OC(C)(C)C)[C@H]4SC3(C)C)nn2)[C@@H](OC(C)=O)[C@H](OC(C)=O)[C@H]1OC(C)=O (some centres unmarked) [Penγ] |  | not associated |

— patent US12637477B2, “Synthesis process of amide derivatives of hydroxypenicillanic acid” (priority 2020, dated 2026)
